The values below come from paper PMC4496362, “Potentiating the cellular targeting and anti-tumor activity of Dp44mT via binding to human serum albumin: two saturable mechanisms of Dp44mT uptake by cells” (Oncotarget, 2015).

Common to all, as to type: binding
What all share (conditions): read-out: % released into dialysate

The target in data set [1] is T1, human serum albumin (HSA) (Homo sapiens, UniProt P02768).
T1 construct: gene ALB
In words: equilibrium dialysis with […]-ligand; Trp-214 fluorescence quenching.

Data set [2] addresses T2, bovine serum albumin (BSA) (Bos taurus, UniProt P02769).
T2 construct: gene ALB
In words: equilibrium dialysis with […]-ligand. (In general: In equilibrium dialysis free small molecules cross a membrane that holds back macromolecules.)

In data set [3] the target is T2, bovine serum albumin (BSA). In words: equilibrium dialysis with […]-ligand (weak retention).

T2 sequence (P02769 25-607): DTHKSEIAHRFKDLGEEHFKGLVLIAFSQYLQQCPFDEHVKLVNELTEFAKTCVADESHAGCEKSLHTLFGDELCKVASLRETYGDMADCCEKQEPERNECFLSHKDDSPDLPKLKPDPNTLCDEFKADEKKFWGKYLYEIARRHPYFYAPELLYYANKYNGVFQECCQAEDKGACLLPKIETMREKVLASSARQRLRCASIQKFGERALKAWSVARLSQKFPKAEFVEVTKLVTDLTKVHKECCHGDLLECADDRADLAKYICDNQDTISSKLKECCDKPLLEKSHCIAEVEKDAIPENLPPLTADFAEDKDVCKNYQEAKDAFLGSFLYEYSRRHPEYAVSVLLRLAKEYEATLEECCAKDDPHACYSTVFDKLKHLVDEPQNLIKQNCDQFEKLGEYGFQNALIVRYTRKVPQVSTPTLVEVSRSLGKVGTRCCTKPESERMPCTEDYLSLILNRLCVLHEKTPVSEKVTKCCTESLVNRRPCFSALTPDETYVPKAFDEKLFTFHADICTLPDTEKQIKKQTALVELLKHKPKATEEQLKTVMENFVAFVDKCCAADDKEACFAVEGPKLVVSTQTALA
T1 sequence (P02768 25-609): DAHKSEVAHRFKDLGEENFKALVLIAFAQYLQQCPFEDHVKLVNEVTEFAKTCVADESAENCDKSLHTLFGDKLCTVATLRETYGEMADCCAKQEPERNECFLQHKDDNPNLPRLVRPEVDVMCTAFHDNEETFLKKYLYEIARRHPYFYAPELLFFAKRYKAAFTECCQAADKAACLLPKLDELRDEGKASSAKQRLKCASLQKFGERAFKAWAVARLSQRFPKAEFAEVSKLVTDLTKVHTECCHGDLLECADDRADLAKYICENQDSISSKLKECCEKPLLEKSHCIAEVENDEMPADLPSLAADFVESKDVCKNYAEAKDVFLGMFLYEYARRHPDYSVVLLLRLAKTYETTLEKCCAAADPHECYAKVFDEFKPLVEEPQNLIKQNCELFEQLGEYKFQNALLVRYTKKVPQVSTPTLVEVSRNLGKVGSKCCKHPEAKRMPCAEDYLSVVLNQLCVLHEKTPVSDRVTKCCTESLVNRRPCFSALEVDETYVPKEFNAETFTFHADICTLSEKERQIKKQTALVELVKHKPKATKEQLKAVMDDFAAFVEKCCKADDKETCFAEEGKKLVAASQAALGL

On to `CCNC(=S)N/N=C(\c1ccccc1)c1ccccn1` [Bp4eT, 2-benzoylpyridine 4-ethyl-3-thiosemicarbazone], for which the values for the fraction unbound in data set [1] and in data set [2] were 0.04 ± 0.003 and 0.09 ± 0.003, respectively.
For `CN(C)C(=S)NN=C(c1ccccn1)c1ccccn1` [Dp44mT, di-2-pyridylketone 4,4-dimethyl-3-thiosemicarbazone], the results for the fraction unbound in data set [1] and in data set [2] were 0.22 ± 0.01 and 0.21 ± 0.005, respectively.
In the case of `Cc1ncc(CO)c(C=NNC(=O)c2ccncc2)c1O` [PIH, pyridoxal isonicotinoyl hydrazone], the fraction unbound in data set [3] was found to be 0.39 ± 0.003; in data set [1], 0.06 ± 0.003.
